According to patent publication US5955500A (G. D. Searle & Co., priority 1997, dated 1999):
Values joined by “and” are separate entries in the source; they are usually repeats but may differ in a detail not shown here. Identical values can stand only once. Counter-ions that a name gives are not always drawn. Like-named read-outs stand apart in the source and are kept apart here.

Legend:
canine heart = details: for AH time / Heart rate / Mean arterial pressure: mean ± SE, listed as 50/50S
[1] = pH 5, individual replicates; listed as 50, hydrochloride
[2] = test system: supraventricular tachycardia; details: intravenous; cited from earlier work
[3] = 0.1 mg/kg i.v., 0 min, hydrochloride
[4] = 0.1 mg/kg i.v., 1 min, hydrochloride
[5] = 0.1 mg/kg i.v., 2 min, hydrochloride
[6] = 0.1 mg/kg i.v., 3 min, hydrochloride
[7] = 0.1 mg/kg i.v., 4 min, hydrochloride
[8] = 0.1 mg/kg i.v., 5 min, hydrochloride
[9] = 0.2 mg/kg i.v., 0 min, hydrochloride
[10] = 0.2 mg/kg i.v., 1 min, hydrochloride
[11] = 0.2 mg/kg i.v., 2 min, hydrochloride
[12] = 0.2 mg/kg i.v., 3 min, hydrochloride
[13] = 0.2 mg/kg i.v., 4 min, hydrochloride
[14] = 0.2 mg/kg i.v., 5 min, hydrochloride
[15] = 0.4 mg/kg i.v., 0 min, hydrochloride
[16] = 0.4 mg/kg i.v., 1 min, hydrochloride
[17] = 0.4 mg/kg i.v., 2 min, hydrochloride
[18] = 0.4 mg/kg i.v., 3 min, hydrochloride
[19] = 0.4 mg/kg i.v., 4 min, hydrochloride
[20] = 0.4 mg/kg i.v., 5 min, hydrochloride

Compound: COc1ccc(CCN(C)CCCC(C#N)(c2ccc(OC)c(OC)c2)C(C)C)cc1OC (racemic) [racemic verapamil, benzeneacetonitrile, α-[3-[[2-(3,4-dimethoxyphenyl)ethyl]methylamino]propyl]-3,4-dimethoxy-α-(1-methylethyl) hydrochloride, reference compound]
- AH time (canine heart; [3]): 97 ± 16 ms
- Heart rate (canine heart; [3]): 143 ± 11 beats per min
- Mean arterial pressure (canine heart; [3]): 92 ± 4 mmHg
- AH time (canine heart; [4]): 107 ± 12 ms
- Heart rate (canine heart; [4]): 135 ± 6 beats per min
- Mean arterial pressure (canine heart; [4]): 97 ± 4 mmHg
- AH time (canine heart; [5]): 105 ± 9 ms
- Heart rate (canine heart; [5]): 122 ± 7 beats per min
- Mean arterial pressure (canine heart; [5]): 101 ± 5 mmHg
- AH time (canine heart; [6]): 106 ± 8 ms
- Heart rate (canine heart; [6]): 118 ± 6 beats per min
- Mean arterial pressure (canine heart; [6]): 102 ± 5 mmHg
- AH time (canine heart; [7]): 104 ± 7 ms
- Heart rate (canine heart; [7]): 119 ± 7 beats per min
- Mean arterial pressure (canine heart; [7]): 100 ± 4 mmHg
- AH time (canine heart; [8]): 104 ± 6 ms
- Heart rate (canine heart; [8]): 125 ± 8 beats per min
- Mean arterial pressure (canine heart; [8]): 104 ± 4 mmHg
- AH time (canine heart; [9]): 96 ± 8 ms
- Heart rate (canine heart; [9]): 169 ± 4 beats per min
- Mean arterial pressure (canine heart; [9]): 88 ± 5 mmHg
- AH time (canine heart; [10]): 117 ± 11 ms
- Heart rate (canine heart; [10]): 164 ± 8 beats per min
- Mean arterial pressure (canine heart; [10]): 90 ± 3 mmHg
- AH time (canine heart; [11]): 112 ± 7 ms
- Heart rate (canine heart; [11]): 149 ± 10 beats per min
- Mean arterial pressure (canine heart; [11]): 101 ± 4 mmHg
- AH time (canine heart; [12]): 118 ± 9 ms
- Heart rate (canine heart; [12]): 149 ± 10 beats per min
- Mean arterial pressure (canine heart; [12]): 101 ± 6 mmHg
- AH time (canine heart; [13]): 117 ± 8 ms
- Heart rate (canine heart; [13]): 147 ± 12 beats per min
- Mean arterial pressure (canine heart; [13]): 101 ± 4 mmHg
- AH time (canine heart; [14]): 124 ± 8 ms
- Heart rate (canine heart; [14]): 147 ± 13 beats per min
- Mean arterial pressure (canine heart; [14]): 100 ± 5 mmHg
- Occurrence of AV conduction block (canine heart; 0.2 mg/kg i.v., listed as 50R/50S-verapamil, hydrochloride): 3 animals
- AH time (canine heart; [15]): 101 ± 10 ms
- Heart rate (canine heart; [15]): 180 ± 11 beats per min
- Mean arterial pressure (canine heart; [15]): 86 ± 8 mmHg
- AH time (canine heart; [16]): 112 ± 10 ms
- Heart rate (canine heart; [16]): 171 ± 7 beats per min
- Mean arterial pressure (canine heart; [16]): 87 ± 8 mmHg
- AH time (canine heart; [17]): 116 ± 5 ms
- Heart rate (canine heart; [17]): 162 ± 3 beats per min
- Mean arterial pressure (canine heart; [17]): 92 ± 7 mmHg
- AH time (canine heart; [18]): 117 ± 7 ms
- Heart rate (canine heart; [18]): 163 ± 5 beats per min
- Mean arterial pressure (canine heart; [18]): 97 ± 6 mmHg
- AH time (canine heart; [19]): 119 ± 8 ms
- Heart rate (canine heart; [19]): 162 ± 4 beats per min
- Mean arterial pressure (canine heart; [19]): 95 ± 8 mmHg
- AH time (canine heart; [20]): 113 ± 5 ms
- Heart rate (canine heart; [20]): 161 ± 9 beats per min
- Mean arterial pressure (canine heart; [20]): 98 ± 6 mmHg
- Occurrence of second and third degree AV conduction block (canine heart; 0.4 mg/kg i.v., listed as 50R/50S-verapamil, hydrochloride): 7 animals
- Peak effect on HR, in words (canine heart; dog, in vivo): drastic increase in HR
- QTc interval compared with 100R-verapamil, in words (canine heart; dog, in vivo): significantly increased compared with 100R-verapamil
- Interaction between MAP and HR (multiple linear regression), in words (canine heart; increase in HR against drop in MAP): greatest rate of increase in HR as opposed to a drop in MAP
- Sinus node recovery time (SNRT), significance (canine heart; paced at 200 beats/min): significant decrease
- Concentration in octanol [1]: 6020 ng/mL and 6360 ng/mL and 5830 ng/mL
- Concentration in water [1]: 5050 ng/mL and 4800 ng/mL and 4750 ng/mL
- Rapid and reliable control of supraventricular tachycardia, in words [2]: work well
